In one assay the target is T1, EGFR (d746-750) (Homo sapiens, UniProt P00533, DEL746-750).
T1 construct: purchased SignalChem E10-122JG
Description: Biochemical EGFR inhibition assay (Caliper mobility shift), EGFR (d746-750). To be noted: read-out: Enz EGFR_Exon19-del746-750 IC50.

Assay [1] deals with intracellular phosphorylation of EGFR (Tyr1068) in PC-9 cells (Ex19Del) (Homo sapiens, UniProt P00533, DEL746-750). Description: PC-9 pEGFR AlphaLISA assay. To be noted: 4 hours compound incubation, read-out: Ext pEGFR_PC-9 Ex19Del IC50. The format is cell-based.
In a further assay the target is T2, EGFR L858R (Homo sapiens, UniProt P00533, L858R).
T2 construct: purchased SignalChem E10-122BG
The assay can be described thus: Biochemical EGFR inhibition assay (Caliper mobility shift), EGFR L858R. To be noted: read-out: Enz EGFR_L858R IC50.

Where [2] appears, read: 1.0 mM ATP or ATP Km, room temperature (25° C.).

pIC50: −log10 of the molar value. Where two headings read alike, the source gives them in different places. Some results are limits rather than exact numbers.

T2 sequence (P00533 25-1210 L858R): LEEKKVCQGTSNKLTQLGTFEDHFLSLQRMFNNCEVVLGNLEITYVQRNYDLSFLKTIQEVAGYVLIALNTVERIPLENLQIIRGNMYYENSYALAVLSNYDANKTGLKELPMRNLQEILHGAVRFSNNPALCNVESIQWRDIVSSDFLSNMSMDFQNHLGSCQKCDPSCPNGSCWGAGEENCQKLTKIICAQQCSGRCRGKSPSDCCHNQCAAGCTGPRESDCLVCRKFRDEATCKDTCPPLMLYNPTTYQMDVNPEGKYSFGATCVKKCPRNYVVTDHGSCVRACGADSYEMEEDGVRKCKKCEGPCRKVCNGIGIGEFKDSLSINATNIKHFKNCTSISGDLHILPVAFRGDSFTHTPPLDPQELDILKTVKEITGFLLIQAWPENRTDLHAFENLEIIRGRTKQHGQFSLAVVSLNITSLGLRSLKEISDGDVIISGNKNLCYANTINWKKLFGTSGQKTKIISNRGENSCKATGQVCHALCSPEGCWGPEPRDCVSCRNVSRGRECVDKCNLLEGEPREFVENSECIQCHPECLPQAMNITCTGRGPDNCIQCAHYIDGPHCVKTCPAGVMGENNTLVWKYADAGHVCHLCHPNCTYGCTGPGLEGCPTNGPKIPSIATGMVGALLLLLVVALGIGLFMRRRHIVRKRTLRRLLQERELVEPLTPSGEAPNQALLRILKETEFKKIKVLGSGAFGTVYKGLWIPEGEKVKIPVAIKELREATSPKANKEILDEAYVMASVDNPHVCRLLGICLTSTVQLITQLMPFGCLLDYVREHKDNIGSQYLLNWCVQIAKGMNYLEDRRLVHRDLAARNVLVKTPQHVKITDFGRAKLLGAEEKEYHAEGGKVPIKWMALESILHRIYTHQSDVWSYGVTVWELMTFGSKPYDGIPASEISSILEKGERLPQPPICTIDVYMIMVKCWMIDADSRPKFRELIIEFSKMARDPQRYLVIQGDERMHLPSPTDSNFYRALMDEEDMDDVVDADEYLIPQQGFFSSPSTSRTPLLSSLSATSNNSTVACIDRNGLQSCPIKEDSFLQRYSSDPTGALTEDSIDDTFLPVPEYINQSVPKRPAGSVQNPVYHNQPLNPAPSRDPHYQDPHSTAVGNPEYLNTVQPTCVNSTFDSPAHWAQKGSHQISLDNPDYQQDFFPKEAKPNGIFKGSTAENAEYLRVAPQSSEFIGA
Sequence of intracellular phosphorylation of EGFR (Tyr1068) in PC-9 cells (Ex19Del) (P00533 with tags, fused parts or gaps DEL746-750): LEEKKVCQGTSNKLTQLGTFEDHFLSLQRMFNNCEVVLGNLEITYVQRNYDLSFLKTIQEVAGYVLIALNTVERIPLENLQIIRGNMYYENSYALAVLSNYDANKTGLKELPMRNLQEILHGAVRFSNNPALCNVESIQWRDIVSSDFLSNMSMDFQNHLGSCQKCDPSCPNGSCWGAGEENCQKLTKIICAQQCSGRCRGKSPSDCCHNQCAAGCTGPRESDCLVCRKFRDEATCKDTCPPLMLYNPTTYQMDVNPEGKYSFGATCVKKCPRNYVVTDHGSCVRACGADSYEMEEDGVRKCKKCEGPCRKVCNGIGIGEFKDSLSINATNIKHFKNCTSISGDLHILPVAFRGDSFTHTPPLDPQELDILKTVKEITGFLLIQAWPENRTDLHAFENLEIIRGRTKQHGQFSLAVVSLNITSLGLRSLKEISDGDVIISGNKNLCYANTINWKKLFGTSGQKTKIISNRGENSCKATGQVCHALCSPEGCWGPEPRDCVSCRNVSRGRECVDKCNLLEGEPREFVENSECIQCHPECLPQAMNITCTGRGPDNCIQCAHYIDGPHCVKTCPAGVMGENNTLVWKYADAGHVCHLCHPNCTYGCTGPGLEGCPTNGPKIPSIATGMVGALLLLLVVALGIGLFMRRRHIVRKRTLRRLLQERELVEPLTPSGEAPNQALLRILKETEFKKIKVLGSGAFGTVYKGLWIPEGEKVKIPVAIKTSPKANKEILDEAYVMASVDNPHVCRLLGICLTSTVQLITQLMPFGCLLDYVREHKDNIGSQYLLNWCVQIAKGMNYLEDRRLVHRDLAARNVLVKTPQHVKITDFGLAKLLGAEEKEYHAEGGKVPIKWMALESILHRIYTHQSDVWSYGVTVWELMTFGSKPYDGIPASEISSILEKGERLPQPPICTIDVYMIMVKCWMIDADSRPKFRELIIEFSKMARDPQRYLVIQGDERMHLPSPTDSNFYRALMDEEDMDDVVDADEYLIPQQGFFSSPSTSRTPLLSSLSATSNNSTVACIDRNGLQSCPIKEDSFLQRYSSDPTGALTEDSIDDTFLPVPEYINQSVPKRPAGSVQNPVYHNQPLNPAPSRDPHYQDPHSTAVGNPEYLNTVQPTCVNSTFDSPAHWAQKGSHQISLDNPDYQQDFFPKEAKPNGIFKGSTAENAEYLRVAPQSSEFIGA
T1 sequence (P00533 with tags, fused parts or gaps DEL746-750 limits assumed): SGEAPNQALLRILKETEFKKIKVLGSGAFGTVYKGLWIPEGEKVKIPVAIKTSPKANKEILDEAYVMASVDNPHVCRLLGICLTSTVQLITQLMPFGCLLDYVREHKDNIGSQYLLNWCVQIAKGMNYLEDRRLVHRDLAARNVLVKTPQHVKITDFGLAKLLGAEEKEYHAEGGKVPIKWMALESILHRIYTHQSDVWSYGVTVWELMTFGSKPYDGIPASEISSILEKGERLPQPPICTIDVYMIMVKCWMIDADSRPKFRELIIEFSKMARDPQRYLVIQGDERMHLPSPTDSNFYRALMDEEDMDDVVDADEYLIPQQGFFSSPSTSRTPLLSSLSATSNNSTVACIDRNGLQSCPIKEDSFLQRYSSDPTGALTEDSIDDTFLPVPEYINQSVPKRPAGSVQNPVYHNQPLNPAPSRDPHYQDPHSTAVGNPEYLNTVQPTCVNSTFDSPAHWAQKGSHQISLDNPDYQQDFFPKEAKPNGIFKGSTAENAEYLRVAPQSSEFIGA

Regarding `CO[C@@H]1CCN(c2cc(O[C@H](C)C3COC3)c3c(Nc4ccc5ncccc5c4F)ncnc3c2)C1` (single isomer, unassigned) [Example 85a, N-(5-fluoroquinolin-6-yl)-7-((R)-3-methoxypyrrolidin-1-yl)-5-((R)-1-(oxetan-3-yl)ethoxy)quinazolin-4-amine or N-(5-fluoroquinolin-6-yl)-7-((S)-3-methoxypyrrolidin-1-yl)-5-((R)-1-(oxetan-3-yl)ethoxy)quinazolin-4-amine], the figures for the pIC50 (on EGFR (d746-750) (setting [2]); in assay [1]; at EGFR L858R (setting [2])) were greater than 8.00, no less than 8.00 and greater than 8.00, respectively.
With `C[C@H](CN(C)C)Oc1cc(N2CCCS2(=O)=O)cc2ncnc(Nc3ccc4ncccc4c3F)c12` [Example 95, (R)-2-(5-((1-(dimethylamino)propan-2-yl)oxy)-4-((5-fluoroquinolin-6-yl)amino)quinazolin-7-yl)isothiazolidine 1,1-dioxide], the pIC50 is greater than 8.00 at EGFR (d746-750), 7.30 to 8.00 in assay [1] and 7.30 to 8.00 at EGFR L858R.
Turning to `CC(Oc1cc(-c2cnn(C)c2)cc2ncnc(Nc3ccc4ncccc4c3F)c12)C1(N(C)C)COC1` (stereo not drawn) [Example 142, 5-(1-(3-(dimethylamino)oxetan-3-yl)ethoxy)-N-(5-fluoroquinolin-6-yl)-7-(1-methyl-1H-pyrazol-4-yl)quinazolin-4-amine], the pIC50 at EGFR (d746-750) is greater than 8.00; in assay [1], no less than 8.00; on EGFR L858R, greater than 8.00.
On to `C[C@@H](Oc1cc(N2CCOC(C)(C)C2)cc2ncnc(Nc3ccc4ncccc4c3F)c12)C1COC1` [Example 60, (R)-7-(2,2-dimethylmorpholino)-N-(5-fluoroquinolin-6-yl)-5-(1-(oxetan-3-yl)ethoxy)quinazolin-4-amine], for which the pIC50 at EGFR (d746-750) is greater than 8.00; in assay [1], 7.30 to 8.00; at EGFR L858R, 7.30 to 8.00.
Take `C[C@H](CN(C)C)Oc1cc(-c2cnn(C)c2)cc2ncnc(Nc3ccc4c(ccc[n+]4[O-])c3F)c12` (single isomer, unassigned) [Example 129]: the pIC50 on EGFR (d746-750) is greater than 8.00; in assay [1], 7.30 to 8.00; at EGFR L858R it was 7.30 to 8.00.
Turning to `C[C@H](CN1CCC1)Oc1cc(-c2cnn(C)c2)cc2ncnc(Nc3ccc4ncccc4c3F)c12` [Example 101, (R)-5-((1-(azetidin-1-yl)propan-2-yl)oxy)-N-(5-fluoroquinolin-6-yl)-7-(1-methyl-1H-pyrazol-4-yl)quinazolin-4-amine], the figures for the pIC50 (at EGFR (d746-750); in assay [1]; at EGFR L858R) were greater than 8.00, no less than 8.00 and 7.30 to 8.00, respectively.
Regarding `COc1cn(C)nc1-c1cc(O[C@H](C)CN(C)C)c2c(Nc3ccc4ncccc4c3F)ncnc2c1` [Example 45, (R)-5-((1-(dimethylamino)propan-2-yl)oxy)-N-(5-fluoroquinolin-6-yl)-7-(4-methoxy-1-methyl-1H-pyrazol-3-yl)quinazolin-4-amine], the pIC50 at EGFR (d746-750) was greater than 8.00; in assay [1], no less than 8.00; on EGFR L858R, greater than 8.00.
For the molecule `C[C@@H](Oc1cc(-c2cnn(C)c2)cc2ncnc(Nc3ccc4ncccc4c3F)c12)[C@@H]1COCCN1C` (single isomer, unassigned) [Example 126], the pIC50 is greater than 8.00 on EGFR (d746-750) (setting [2]), no less than 8.00 in assay [1] and greater than 8.00 at EGFR L858R (setting [2]).
As for `C[C@H](CN(C)C)Oc1cc(-c2cnn(C)c2)cc2ncnc(Nc3ccc4cccnc4c3F)c12` [Example 108, (R)-5-((1-(dimethylamino)propan-2-yl)oxy)-N-(8-fluoroquinolin-7-yl)-7-(1-methyl-1H-pyrazol-4-yl)quinazolin-4-amine], the pIC50 is greater than 8.00 on EGFR (d746-750), 7.30 to 8.00 in assay [1] and 7.30 to 8.00 at EGFR L858R.
Turning to `C[C@H](CO)Oc1cc(-c2cnn(C)c2)cc2ncnc(Nc3ccc4ncccc4c3F)c12` [Example 135, (R)-2-((4-((5-fluoroquinolin-6-yl)amino)-7-(1-methyl-1H-pyrazol-4-yl)quinazolin-5-yl)oxy)propan-1-ol], the values for the pIC50 (on EGFR (d746-750); in assay [1]; at EGFR L858R) were greater than 8.00, no less than 8.00 and greater than 8.00, respectively.
On to `C[C@H](CN(C)C)Oc1cc(-c2cnn(C)c2)cc2ncnc(Nc3ccc4ncc(F)cc4c3)c12` [Example 7, (R)-5-((1-(dimethylamino)propan-2-yl)oxy)-N-(3-fluoroquinolin-6-yl)-7-(1-methyl-1H-pyrazol-4-yl)quinazolin-4-amine], for which the pIC50 at EGFR (d746-750) was greater than 8.00; in assay [1], no less than 8.00; at EGFR L858R it was greater than 8.00.
Consider `C[C@H](CN(C)C)Oc1cc(N2CCOC(C(F)F)C2)cc2ncnc(Nc3ccc4ncccc4c3F)c12` (mixture of isomers) [Example 98, 7—((S)-2-(difluoromethyl)morpholino)-5-(((R)-1-(dimethylamino)propan-2-yl)oxy)-N-(5-fluoroquinolin-6-yl) and 7-((R)-2-(difluoromethyl)morpholino)-5-(((R)-1-(dimethylamino)propan-2-yl)oxy)-N-(5-fluoroquinolin-6-yl)quinazolin-4-amine], for which the pIC50 on EGFR (d746-750) is greater than 8.00; in assay [1], no less than 8.00; at EGFR L858R it was 7.30 to 8.00.
For the molecule `C[C@H](CN(C)C1CC1)Oc1cc(-c2cnn(C)c2)cc2ncnc(Nc3ccc4ncccc4c3F)c12` [Example 114, (R)-5-((1-(cyclopropyl(methyl)amino)propan-2-yl)oxy)-N-(5-fluoroquinolin-6-yl)-7-(1-methyl-1H-pyrazol-4-yl)quinazolin-4-amine], the results for the pIC50 (at EGFR (d746-750); in assay [1]; at EGFR L858R) were greater than 8.00, no less than 8.00 and greater than 8.00, respectively.
On to `C[C@@H](Oc1cc(N2CCC(N(C)C)CC2)cc2ncnc(Nc3ccc4ncccc4c3F)c12)C1COC1` [Example 78, (R)-7-(4-(dimethylamino)piperidin-1-yl)-N-(5-fluoroquinolin-6-yl)-5-(1-(oxetan-3-yl)ethoxy)quinazolin-4-amine], for which the pIC50 on EGFR (d746-750) is greater than 8.00; in assay [1], no less than 8.00; on EGFR L858R, greater than 8.00.
In the case of `CC(CN(C)C)Oc1cc(N2CC3CC(C2)O3)cc2ncnc(Nc3ccc4ncccc4c3)c12` (racemic) [Example 66, 7-(6-oxa-3-azabicyclo[3.1.1]heptan-3-yl)-5-(((R)-1-(dimethylamino)propan-2-yl)oxy)-N-(quinolin-6-yl)quinazolin-4-amine and 7-(6-oxa-3-azabicyclo[3.1.1]heptan-3-yl)-5-(((S)-1-(dimethylamino)propan-2-yl)oxy)-N-(quinolin-6-yl)quinazolin-4-amine], the pIC50 on EGFR (d746-750) was greater than 8.00; in assay [1], no less than 8.00; on EGFR L858R, 7.30 to 8.00.
In the case of `C[C@H](Oc1cc(-c2cnn(C)c2)cc2ncnc(Nc3ccc4ncccc4c3F)c12)[C@@H]1CCCN1C` (single isomer, unassigned) [Example 148], the pIC50 on EGFR (d746-750) (setting [2]) was 7.30 to 8.00; in assay [1], less than 7.30; at EGFR L858R (setting [2]), 7.30 to 8.00.
With `C[C@H](CN(C)C)Oc1cc(N2CC[C@H](C(C)(C)O)C2)cc2ncnc(Nc3ccc4ncccc4c3F)c12` [Example 73, 2—((S)-1-(5-(((R)-1-(dimethylamino)propan-2-yl)oxy)-4-((5-fluoroquinolin-6-yl)amino)quinazolin-7-yl)pyrrolidin-3-yl)propan-2-ol], the pIC50 at EGFR (d746-750) was greater than 8.00; in assay [1], no less than 8.00; on EGFR L858R, greater than 8.00.
On to `CN(C)[C@@H]1CC[C@H]1Oc1cc(-c2cnn(C)c2)cc2ncnc(Nc3ccc4ncccc4c3F)c12` (single isomer, unassigned) [Example 141, 5-((1R,2R)-2-(dimethylamino)cyclobutoxy)-N-(5-fluoroquinolin-6-yl)-7-(1-methyl-1H-pyrazol-4-yl)quinazolin-4-amine or 5-((1S,2S)-2-(dimethylamino)cyclobutoxy)-N-(5-fluoroquinolin-6-yl)-7-(1-methyl-1H-pyrazol-4-yl)quinazolin-4-amine], for which the pIC50 on EGFR (d746-750) (setting [2]) is 7.30 to 8.00; in assay [1] it was less than 7.30; on EGFR L858R (setting [2]) it was 7.30 to 8.00.
Consider `C[C@H](CN(C)C)Oc1cc(-c2cnn(C)c2)cc2ncnc(Nc3cnc4ccccc4c3F)c12` [Example 110, (R)-5-((1-(dimethylamino)propan-2-yl)oxy)-N-(4-fluoroquinolin-3-yl)-7-(1-methyl-1H-pyrazol-4-yl)quinazolin-4-amine], for which the results for the pIC50 (at EGFR (d746-750); in assay [1]; at EGFR L858R) were greater than 8.00, less than 7.30 and greater than 8.00, respectively.
Take `C[C@H](O)[C@H](C)Oc1cc(-c2cnn(C)c2)cc2ncnc(Nc3ccc4ncccc4c3F)c12` (single isomer, unassigned) [Example 30, (2S,3S)-3-((4-((5-fluoroquinolin-6-yl)amino)-7-(1-methyl-1H-pyrazol-4-yl)quinazolin-5-yl)oxy)butan-2-ol or (2R,3R)-3-((4-((5-fluoroquinolin-6-yl)amino)-7-(1-methyl-1H-pyrazol-4-yl)quinazolin-5-yl)oxy)butan-2-ol]: the pIC50 is greater than 8.00 at EGFR (d746-750) (setting [2]), no less than 8.00 in assay [1] and greater than 8.00 on EGFR L858R (setting [2]).
As for `C[C@H](CN(C)C)Oc1cc(-c2cnn(C)c2)cc2ncnc(Nc3ccc4nccnc4c3)c12` [Example 103, (R)-5-((1-(dimethylamino)propan-2-yl)oxy)-7-(1-methyl-1H-pyrazol-4-yl)-N-(quinoxalin-6-yl)quinazolin-4-amine], the values for the pIC50 (on EGFR (d746-750); in assay [1]; at EGFR L858R) were greater than 8.00, 7.30 to 8.00 and 7.30 to 8.00, respectively.
